{
  "source": "patent US6951647B2",
  "about": "“T cell binding ligand peptides and method of inducing a cellular immune response” (Cel-Sci Corporation, priority 2001, dated 2005)",
  "conditions": "saline (0.15 M NaCl, pH 7.4) or WFI, 0.5-2.0 mg/ml; 2-8, 18-25 or 40 °C; pH 7.4 to 4.5; HPLC",
  "description": "The long range stability of the peptide constructs formed using Peptide G, was carried out with the construct dissolved in saline (0.15 M NaCl, pH 7.4) or in water for injection (WFI) at a concentration of 0.5-2.0 mg/ml and stored frozen soon after preparation.",
  "note": "Where no end group is shown, it is not given here.",
  "data": [
    {"sequence": "DGQEEKAGVVSTGLI [Peptide G′]", "values": [
      {"measurement": "Long range stability (deamination) of peptide constructs", "result": "overcomes the long range stabilization problem of the peptide conjugates"}
    ]}
  ]
}
